# Measured values taken from PMC4535769, “The Carboxy Terminus of the Ligand Peptide Determines the Stability of the MHC Class I Molecule H-2K^b: A Combined Molecular Dynamics and Experimental Study” (PLoS ONE, 2015).
# pIC50: −log10 of the molar value. Read-outs that look alike come from different tables or passages of the source. Ends that are not written are not given here.
# Tests used:
# [1] = target: T1, cell surface K^b, RMA-S cells (Mus musculus, UniProt P01901); test: Brefeldin A (BFA) decay assay, cell surface K^b on RMA-S cells; format: cell-based, murine; details: 10 μM peptide, 10 μg/ml BFA, 37°C, after four hours, MAb Y3, flow cytometry, n = 3
# T1 construct: endogenous in cells; host or cells: RMA-S cells (TAP-deficient)
# T1 sequence (P01901 22-369): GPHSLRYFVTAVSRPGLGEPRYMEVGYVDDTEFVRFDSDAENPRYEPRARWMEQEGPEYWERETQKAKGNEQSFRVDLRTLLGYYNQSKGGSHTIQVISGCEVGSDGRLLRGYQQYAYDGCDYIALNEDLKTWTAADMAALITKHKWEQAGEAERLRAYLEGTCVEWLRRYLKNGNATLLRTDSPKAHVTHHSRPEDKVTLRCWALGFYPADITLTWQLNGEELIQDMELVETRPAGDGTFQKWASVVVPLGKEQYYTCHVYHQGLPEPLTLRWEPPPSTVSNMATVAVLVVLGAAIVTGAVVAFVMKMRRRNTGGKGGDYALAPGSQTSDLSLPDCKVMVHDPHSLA
# T1 sequence (P01887 21-119 partner): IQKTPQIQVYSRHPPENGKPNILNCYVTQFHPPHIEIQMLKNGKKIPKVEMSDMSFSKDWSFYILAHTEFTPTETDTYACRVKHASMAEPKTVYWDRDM
# Method: RMA-S cells were kept overnight at 25°C and at t = 0 treated with 10 μg/ml BFA (Applichem or Alfa Aesar) and with 10 μM peptide and transferred to 37°C for a maximum of 4 hours. At different time points, cells were washed twice with 1x PBS/0.01% NaN3, and cell surface K^b was measured with the MAb Y3 by flow cytometry.
# We then incubated these cells with each peptide and measured the surface residence time of the K^b/peptide complexes by withdrawing aliquots of cells at different times, fixing, and staining with the antibody Y3 followed by flow cytometry (Fig 7, S1I Fig).
# RMA-S cells were incubated overnight at 25°C, then 10 μM peptide (as indicated) was added to the medium, and cells were transferred to 37°C. H-2K^b surface levels were determined at each time point with MAb Y3 and flow cytometry. Averages ± SEM (n = 3) are normalized to initial mean fluorescence intensity (MFI).
# K^b/β2m [2] = target: T2, K^b/β2m (Mus musculus, UniProt P01901); test: Competitive binding against SIINFEKTAMRAL measured by fluorescence anisotropy (IC50); parameters: species or system murine
# T2 construct: The TDTF analysis was performed on the luminal domain of K^b, which was produced in E.coli; made in house
# Method: Steady state measurements were performed with peptide-free folding reactions of K^b/β2m.
# K^b was folded empty and then incubated with different concentrations of each peptide variant for five minutes. Then, the index peptide SIINFEKTAMRAL (fluorescently labeled on the lysine side chain) was added as a competitor, and the endpoint of its binding was measured by fluorescence anisotropy. From theory curves fitted to the data, we calculated the half-maximal concentration of inhibition of SIINFEKTAMRAL binding (IC50) for each modified peptide (Fig 6, S1F Fig).
# Fig 6 Half-maximal concentration of peptide (IC50) required to inhibit the binding of the high affinity peptide SIINFEKTAMRAL. K^b/β2m complexes derived from the […] (B) structures were folded empty and then incubated for 5 minutes with different concentrations of full-length, truncated, or modified peptides. […] Binding curves (left) are of one representative experiment, and the IC50 values (right) are the average of three experiments.
# K^b/β2m [3] = target: T2, K^b/β2m; test: Thermal denaturation by tryptophan fluorescence (TDTF) of K^b/β2m/peptide complexes; format: binding, murine; details: for ∆GTDTF: derived from TDTF measurements by the two-state, single-transition model
# Method: TDTF measurements and Tm determination were performed exactly as described previously [36].
# To test our ranking by experiment, we next used the TDTF (thermal denaturation measured by tryptophan fluorescence) assay to determine the Tm of the K^b/peptide complexes. In this assay, thermal unfolding of the class I molecule is measured by the decrease in fluorescence intensity that occurs when the tryptophan indoles are exposed to the aqueous environment [49, 50]. The TDTF analysis was performed on the luminal domain of K^b, which was produced in E.coli and folded from inclusion bodies as a complex with human β2m and with or without peptide [36]. […] From the Tm values, we derived the ΔΔGTDTF values using the two-state model of denaturation [50, 51].
# The folded heavy chain/β2m/peptide complex was prepared by diluting 200 ‏‏µg of the K^b heavy chain, 200 ‏‏µg of human β2m (both produced in E. coli), and none or 10 µM of peptide into 2 ml of the refolding buffer (100 mM Tris-Cl pH 8, 0.5 M arginine, 2 mM EDTA, 0.5 mM oxidized glutathione, 5 mM reduced glutathione), and the reaction was incubated at 4 °C for 48 hours, then ultracentrifuged at 10^5 ×g for 20 min to sediment aggregates. Concentration of soluble protein was then determined using the Bradford assay.
# The folded complex was measured in PBS (150 mM NaCl, 10 mM phosphate pH 7.4) in a 1 cm × 1 cm cuvette in a Cary Eclipse fluorimeter (Agilent, Waldbronn, Germany) equipped with a Peltier heater and an in-cuvette thermocouple. The sample was heated at 0.30 K/min, and fluorescence values (λex= 290 nm, λem= 345 nm) were recorded every 0.1 K.
# The differentials (F(T+∆T) – F(T))/∆T (with F = fluorescence intensity and ∆T = the temperature interval of recording) were smoothed over 40 points. The minimum of the resulting curve allows a simple optical assessment of the Tm. For display, LOWESS fits [17] to the differentials were performed with GraphPad Prism (GraphPad, La Jolla, CA, USA).
# The binding free energy components were derived from the TDTF measurements according to the two-state, single-transition model [18,19]. […]
# [4] = K^b/β2m folded empty, incubated 5 min with peptide, then 100 nM SIINFEKTAMRAL, fluorescence anisotropy endpoint, average of three experiments, read-out: IC50, inhibition of SIINFEKTAMRAL binding
# T2 sequence (P61769 21-119 partner, one chain of several): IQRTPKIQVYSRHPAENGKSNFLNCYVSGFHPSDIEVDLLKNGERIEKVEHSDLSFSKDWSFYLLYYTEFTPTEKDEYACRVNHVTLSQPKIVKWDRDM
compound,measurement,setting,value
CC(C)C[C@H](NC(=O)[C@H](C)NC(=O)[C@@H]1CCCN1C(=O)[C@H](Cc1ccc(O)cc1)NC(=O)[C@H](CC(N)=O)NC(=O)CNC(=O)[C@@H]1CCCN1C(=O)[C@H](C)NC(=O)[C@@H](N)Cc1ccccc1)C(=O)O [FAPGNYPAL],K^b/peptide complexes remaining on the cell surface,[1],more than 80%
CC[C@H](C)[C@H](NC(=O)[C@@H](NC(=O)[C@@H](N)CO)[C@@H](C)CC)C(=O)N[C@@H](CC(N)=O)C(=O)N[C@@H](Cc1ccccc1)C(=O)N[C@@H](CCC(=O)O)C(=O)N[C@@H](CCCCN)C(=O)N[C@@H](CC(C)C)C(=O)O [reference compound],pIC50,K^b/β2m [2]; [4],6.72
same,K^b/peptide complexes remaining on the cell surface,[1],more than 80%
APGNYPAL [APGNYPAL],pIC50,K^b/β2m [2],6.82
FAPGNYPA,pIC50,K^b/β2m [2],4.74
SIINFEKA,pIC50,K^b/β2m [2]; [4],6.92
SIINFEKG,∆GTDTF,K^b/β2m [3],-92.6 ± 9.2 kcal/mol
SIINFEKL-Cdel,∆GTDTF,K^b/β2m [3],-83.8 ± 8.3 kcal/mol
same,∆∆GTDTF,"K^b/β2m [3]; derived from Tm by the two-state model, relative to the full-length peptide",20.7 kcal/mol
